Laboratory results taken from patent US11352371B2, “Thienopyrimidine derivatives as ACC inhibitors and uses thereof” (Gilead Sciences, Inc., priority 2019, dated 2022).

Tests used:
HepG2 cells = experiment: In vitro De Novo Lipogenesis (DNL) assay, 13C-acetate incorporation into palmitic acid; assay type: cell-based; details: Homo sapiens, 1 hour preincubation, 24 hours with 10 mM 13C-labeled acetate
How it was run: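 HepG2 cells were preincubated with compound for 1 h, then given 10 mM 13C-acetate for 24 h at 37 °C. Lipids were saponified with KOH/ethanol at 70 °C, and palmitate carrying 3–7 13C was quantified by RapidFire-QTOF MS. This signal was normalized to oleate and plotted against compound concentration.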

[1] = Rat liver/plasma ratio determination; assay type: in vivo, male Sprague-Dawley (SD) rats; details: male SD rats, single oral dose 5 mg/kg or 10 mg/kg
Protocol: Liver to plasma (L/P) ratios of certain example compounds were determined in male Sprague-Dawley (SD) rats 2 hours and 24 hours after their administration.
The in vivo phases of the rat L/P ratio determinations for example compounds were conducted at Covance Laboratories (Madison, Wis.) or Charles River Laboratories (Worcester, Wash.). Animals were housed and handled in accordance with the Guide for the Care and Use of Laboratory Animals, Institute of Laboratory Animal Resources. The protocols were reviewed and approved by Institutional Animal Care and Use Committees (IACUC). Male Sprague-Dawley (SD) rats weighing approximately 300 g were fasted overnight prior to dosing and up to 4 hours after dosing. Each example compound was dosed at a single dose at 5 mg/kg or 10 mg/kg orally by gavage to male SD rats (n=3 rats/group). The aqueous formulation contained ethyl alcohol and polyethylene glycol 300. Approximately 100 μL plasma and 0.5 g liver samples were collected from each animal either 2 hours or 24 hours after dosing. The liver samples were homogenized by hard tissue homogenizer probes (Omni International, Kennesaw, Ga.) with 4× extraction buffer. For LC-MS/MS analysis, plasma and liver samples were prepared through protein precipitation extraction and analyzed on a Scitex API 5500 or 6500 LC-MS/MS instrument (Applied Biosystems, Foster City, Calif.). Analyte was eluted on a 1.7 μm 50×2.1 mm Acquity UPLC BEH C18 column (Waters, Milford, Mass.) using mobile phase containing 0.1% formic acid and a linear gradient from 55% to 95% acetonitrile at a flow rate of 800 μL/min. A liver/plasma ratio for each compound was calculated using the liver and plasma concentrations at the corresponding time point (2 hours or 24 hours). Noncompartmental pharmacokinetic parameters were calculated using Phoenix 32 (Pharsight Corporation, Mountain View, Calif.).
To assess the liver loading potential of the compounds, rat liver/plasma ratios (Rat L/P Ratio) values were determined for example compounds and are listed below in Table 1 for 2 hour and 24 hour timepoints (Rat L/P Ratio (2h/24h)).

[2] = system: De Novo Lipogenesis (DNL) in liver; experiment: In vivo De Novo Lipogenesis study; set-up: species or system Male Sprague Dawley (SD) rats; details: Rattus norvegicus; male SD rats, single p.o. dose, acetate i.p. 3h post-dose, livers collected 1h later; read-out: effective dose that decreased in vivo DNL by 50% (ED50)
Protocol: The DNL inhibitory activity of the compound of Example 1 was assessed in vivo as follows.
The studies were performed at Covance Laboratories (Madison, Wis.) in compliance with Institutional Animal Care and Use Committee protocols. Male Sprague Dawley (SD) rats were purchased from Envigo RMS, INC and were acclimatized for 7 days prior to study initiation. Animals were provided ad libitum access to food and water for the duration of the study. On the day of the experiment, animals were randomized into dose groups (n=6 rats/group) based on body weight and received a single p.o dose of vehicle (0.1% Tween 80 in water, pH 7.5-8.0) or a dose range of the compound of Example 1 (0.1 μg/kg-1 mg/kg). 3h post-dose (Example 1), the animals received a single i.p bolus of […] (Perkin Elmer, 32 μCi/animal) and were sacrificed 1h later, and livers were collected for DNL analysis. An approx. 0.75 g piece of liver was saponified at 70° C. for 120 min in 1.5 mL of 2.5M NaOH followed by addition of 2.5 mL of ethanol, vigorous mixing. […] Residual ether fractions were dissolved in at least 5 mL of Ultima Gold XR scintillation fluid and analyzed by liquid scintillation counting (LSC). The resulting dpm ([…]) values were normalized to tissue weight and the data were expressed as a percent of vehicle. […]

[3] = Preliminary study of systemic blood clearance after intravenous administration; assay type: in vivo; details: monkeys, preliminary studies

- EC50 (HepG2 cells): 1 nM
- L/P Ratio (2 h) ([1]; liver to plasma concentration 2 hours after dosing): 520
- L/P Ratio (24 h) ([1]; liver to plasma concentration 24 hours after dosing): 1526
- systemic blood clearance [3]: higher than hepatic blood flow
Structure (SMILES): COc1ccccc1[C@H](Cn1c(=O)n(C(C)(C)C(=O)NS(=O)(=O)C2(C)CC2)c(=O)c2c(C)c(-c3ncco3)sc21)O[C@@H]1C[C@H]2CC[C@@H](C1)O2 [Example 1, 2-(1-((R)-2-(((1R,3s,5S)-8-oxabicyclo[3.2.1]octan-3-yl)oxy)-2-(2-methoxyphenyl)ethyl)-5-methyl-6-(oxazol-2-yl)-2,4-dioxo-1,4-dihydrothieno[2,3-d]pyrimidin-3(2H)-yl)-2-methyl-N-((1-methylcyclopropyl)sulfonyl)propanamide]
- ED50 [2]: 0.08 mg/kg
